{"source": "patent US10308662B2", "about": "“Thienopyranones as kinase and epigenetic inhibitors” (SignalRx Pharmaceuticals, Inc., priority 2014, dated 2019)", "key": {"N-myc (MYCN) mRNA": {"test_system": "N-myc (MYCN) mRNA", "experiment": "Real-time PCR of N-myc mRNA in IMR32 cells", "format": "cell-based", "details": "IMR32, 5 μM, 24 hrs"}, "[1]": {"test_system": "SKNBE(2) neuroblastoma cell line", "experiment": "Cytotoxicity / proliferation study, SKNBE(2)", "format": "cell-based", "details": "Homo sapiens, SKNBE2; SKNBE(2) cell line"}, "N-MYC": {"test_system": "N-MYC", "experiment": "Western blot of N-MYC in SKNBE(2) cells", "format": "cell-based, human", "details": "24 hrs treatment, 50 ng/ml IGF stimulation", "description": "(§1) Cells were stimulated with 50 ng/ml IGF for 30 min and used for lysate preparation. Proteins were quantitated by the BCA protein assay (Pierce). Equal amounts of protein were resolved by polyacrylamide gels, transferred to nitrocellulose membrane and probed by Western blot with the following primary antibodies: p-AKT(Ser473), AKT (Cell Signaling Technologies), N-MYC, CyclinD1 and β-actin (Santa Cruz Biotechnology)."}, "NB9464 cell line": {"test_system": "NB9464 cell line", "experiment": "Cytotoxicity / proliferation study, NB9464", "format": "cell-based, murine", "details": "Mus musculus"}, "[2]": {"test_system": "MYCN-dependent MB patient derived xenograft (PDX) cell line", "experiment": "Cytotoxicity / proliferation study, PDX MB", "format": "cell-based", "details": "Homo sapiens"}, "MYCN promoter region": {"test_system": "MYCN promoter region", "experiment": "Brd4 chromatin precipitation with quantitative PCR of MYCN promoter in SKNBE(2) cells", "format": "cell-based, human", "details": "24 hours exposure", "description": "MYCN amplified SKNBE(2) cells were exposed to inhibitors for 24 hours then chromatin was precipitated with Brd4 (rabbit polyclonal antibody) along with rabbit IgG as a negative control (IgG). Precipitated chromatin was analyzed for the MYCN gene (2 sites within the MYCN promoter region) by quantitative PCR and enrichment is shown as the percentage of total input DNA (FIG. 4). The negative control region primers amplify within a gene desert region approximately 1 Mb away from MYCN (MYC-N NR). Error bars represent±SEM of triplicate data. P<0.05 as compared to positive control (paired t-test)."}, "[3]": {"test_system": "B16 F10 luciferase melanoma cells", "experiment": "B16 melanoma mouse model of metastasis", "format": "in vivo, mice", "details": "50 mg/kg every other day, 15 days", "source_text": "The luciferase signal was monitored every third day by injecting luciferin, until the lungs were harvested on day 15 (n=5). […] Lungs extracted from these animals are shown below the luciferase imaged pictures supporting the repression of tumor growth in Cmpd 28-treated mice."}, "BRD4": {"biological_target": "BRD4 (Homo sapiens, UniProt O60885)", "experiment": "BRD4 inhibition assay (region not specified)", "format": "binding", "protocol": "The activity of a compound of the invention as an inhibitor of a bromodomain-containing protein, such as a BET protein, such as BRD2, BRD3, BRD4, and/or BRDT, or an isoform or mutant thereof, may be determined in vitro, in vivo, or in a cell line. In vitro assays include assays that determine inhibition of bromodomain-containing proteins. Alternatively, inhibitor binding may be determined by running a competition experiment where a provided compound is incubated with a bromodomain-containing protein, such as a BET protein bound to known ligands, labeled or unlabeled. For example, bromodomain inhibition can be determined in vitro using Alpha Screen Technology (http://www.reactionbiology.com/webapps/site/NewsPDFs/Bromodomain%20Assay%20Platform%20for%20Drug%20Screening%20and%20Discovery.pdf). […] Bromodomain inhibition may also be predicted by in silico modeling as described below in the Examples.\nComputational modeling was performed using the commercially available FlexX (http://www.biosolveit.de/FlexX/download/flexx_brochure.pdf) software tools. […] It should be noted that the more negative the number or value of the docking score is, the stronger is the predicted binding energy at the BRD4 site that recognizes the acetyl lysine of chromatin."}, "Panc02 tumor cells": {"test_system": "Panc02 tumor cells", "experiment": "Orthotopic Panc02 pancreatic model of spontaneous metastasis", "format": "in vivo, mice", "details": "50 mg/kg three times a week", "description": "Panc02 (1×10^6) tumor cells were injected into the pancreas of WT mice (n=18). After 20 days, mice were randomized into two groups. One group was treated with DMSO (control) and the other group was treated with 50 mg/kg of SF2523, three times a week. Tumors were removed 35 days after tumor implantation. Values are mean±SEM (n=8 in each gp; P<0.01; pair wise two-sided Student's t test). […] Values are mean±SEM (n=7; P<0.01; pair wise two-sided Student's t test). The data are representative of three independent experiments performed."}, "Cyclin D1 mRNA": {"test_system": "Cyclin D1 mRNA", "experiment": "Real-time PCR of Cyclin D1 mRNA in IMR32 cells", "format": "cell-based", "details": "IMR32, 5 μM, 24 hrs"}, "[4]": {"test_system": "NB9464 murine neuroblastoma tumor", "experiment": "NB9464 tumor growth in nude mice", "format": "in vivo", "details": "50 mg/kg, 3 days a week for 1.5 weeks, intra-peritoneal", "quoted_text": "MYCN-overexpressing murine neuroblastoma cells (NB9464) were transplanted into nude mice, grown for 24 days and randomized into two groups."}, "p-AKT(Ser473)": {"test_system": "p-AKT(Ser473)", "experiment": "Western blot of pAKT in SKNBE(2) cells", "format": "cell-based, human", "details": "24 hrs treatment, 50 ng/ml IGF stimulation", "description": "as §1"}}}
{"smiles": "O=c1cc(N2CCOCC2)oc2c(-c3ccc4c(c3)OCCO4)csc12", "note": "[Cmpd 28]", "values": [{"measurement": "MYCN mRNA expression", "setting": "N-myc (MYCN) mRNA", "value": "inhibits MYCN expression"}, {"measurement": "IC50", "setting": "[1]", "value": 7.6, "unit": "µM"}, {"measurement": "MYCN quantity by Western blot", "setting": "N-MYC", "value": "decreased MYCN"}, {"measurement": "IC50", "setting": "NB9464 cell line", "value": 8.7, "unit": "µM"}, {"measurement": "IC50", "setting": "[2]", "value": 3.6, "unit": "µM"}, {"measurement": "MYCN expression (Brd4-precipitated chromatin, MYCN promoter PCR)", "setting": "MYCN promoter region", "value": "significantly repressed MYCN expression"}, {"measurement": "luciferase bioimaging of cancer cells", "setting": "[3]", "value": "little evidence of the presence of cancer cells"}, {"measurement": "reduction in metastatic nodules", "setting": "[3]; lungs", "value": 60, "unit": "%"}, {"measurement": "BRD4 inhibition", "setting": "BRD4", "value": "showed activity against BRD4 regions 1 and 2"}, {"measurement": "spontaneous metastasis", "setting": "Panc02 tumor cells", "value": "blocks spontaneous metastasis"}, {"measurement": "Cyclin D1 mRNA expression", "setting": "Cyclin D1 mRNA", "value": "reducing mRNA expression"}, {"measurement": "tolerability (body weight)", "setting": "[4]", "value": "well tolerated"}, {"measurement": "tumor growth compared to vehicle", "setting": "[4]", "value": "significantly blocked tumor growth"}, {"measurement": "pAKT level by Western blot", "setting": "p-AKT(Ser473)", "value": "decreased MYCN and pAKT"}]}
